From patent US20050276834A1, “Mole bait and systems and methods for making and using an improved mole bait” (priority 2004, published 2005)

System: moles
Experiment: Mole bait article fed to moles, killing of moles
Type: in vivo
Conditions: bromethalin absorbed from a single mole bait article; oral consumption by mole
Experimental: In developing the mole bait article containing gelatin, sorbitol and glycerin according to the above-outlined exemplary embodiment, the applicants screened a large number of elastomers and plasticizers. This screening included determining an appropriate ratio of components by stretching the resultant mole bait article, where the length of the mole bait article was measured before, during and after stretching. This screening also included stretching the mole bait article until the mole bait article broke, thus allowing the tensile strength of the mole bait article to be determined. This screening included providing the mole bait article having the identified formula to moles and observing whether the moles would consume the resultant mole bait article. Finally, this screening included determining whether the mole bait article, when digested by the moles, is sufficiently digestible that a single mole bait article releases an effective amount of the active ingredient into the moles' systems.
In contrast, in various exemplary embodiments of the mole bait article according to this invention, the mole bait article is sufficiently digestible that a single mole bait article according to this invention, upon being consumed and digested, is able to release an effective dose of the active ingredient to the mole. […]

CN(c1c(Br)cc(Br)cc1Br)c1c([N+](=O)[O-])cc([N+](=O)[O-])cc1C(F)(F)F [Bromethalin]
dose received from a single mole bait article during its time in the mole's digestive system: lethal dose from a single one of the mole bait articles
